# Reference: patent US20240368135A1 (VERTEX PHARMACEUTICALS INCORPORATED, priority 2021, published 2024)
# Read-outs that look alike come from different tables or passages of the source.
# Molecular target: human NaV 1.8 (Homo sapiens, UniProt Q9Y5Y9)
# Test: E-VIPR assay detecting and measuring NaV inhibition properties
# Type: cell-based
# Conditions: HEK cells expressing truncated human NaV 1.8
# Source text: Sodium ion channels are voltage-dependent proteins that can be activated by inducing membrane voltage changes by applying electric fields. The electrical stimulation instrument and methods of use, referred to as E-VIPR, are described in International Publication No. WO 2002/008748 A3 and C.-J. Huang et al. Characterization of voltage-gated sodium channel blockers by electrical stimulation and fluorescence detection of membrane potential, 24 Nature Biotech. 439-46 (2006), both of which are incorporated by reference in their entirety. The instrument comprises a microtiter plate handler, an optical system for exciting the coumarin dye while simultaneously recording the coumarin and oxonol emissions, a waveform generator, a current- or voltage-controlled amplifier, and parallel electrode pairs that are inserted into assay plate wells. Under integrated computer control, this instrument passes user-programmed electrical stimulus protocols to cells within the wells of the microtiter plate.
# 16-20 hours prior to running the assay on E-VIPR, HEK cells expressing a truncated form of human NaV 1.8 with full channel activity were seeded into microtiter 384-well plates, pre-coated with matrigel, at a density of 25,000 cells per well. 2.5-5% KIR2.1 Bacmam virus was added to the final cell suspension before seeding into cell plates. HEK cells were grown in Dulbecco's Modified Eagle's Medium (DMEM) supplemented with 10% FBS (Fetal Bovine Serum, qualified; Sigma #F4135), 1% NEAA (Non-Essential Amino Acids, Gibco #11140), 1% HEPES (Gibco #15630), 1% Pen-Strep (Penicillin-Streptomycin; Gibco #15140) and 5 μg/ml Blasticidin (Gibco #R210-01). Cells were expanded in vented cap cell culture flasks, with 90-95% humidity and 5% CO2.
# Human Serum (HS, Millipore #S1P1-01KL, or Sigma SLBR5469V and SLBR5470V as a 50%/50% mixture, for 25% assay final concentration) • Bath 1 Buffer: • Sodium Chloride 160 mM (9.35 g/L), Potassium Chloride, 4.5 mM (0.335 g/L), Glucose 10 mM (1.8 g/L), Magnesium Chloride (Anhydrous) 1 mM (0.095 g/L), Calcium Chloride 2 mM (0.222 g/L), HEPES 10 mM (2.38 g/L) in water. • Na/TMA C1 Bath 1 Buffer: • Sodium Chloride 96 mM (5.61 g/L), Potassium Chloride 4.5 mM (0.335 g/L), Tetramethylammonium (TMA)-Cl 64 mM (7.01 g/L), Glucose 10 mM (1.8 g/L), Magnesium Chloride (Anhydrous) 1 mM (0.095 g/L), Calcium Chloride 2 mM (0.222 g/L) HEPES 10 mM (2.38 g/L) in water. • Hexyl Dye Solution (2× concentration): • Bath 1 Buffer containing 0.5% P-cyclodextrin (made fresh prior to each use, Sigma #C4767), 8 μM CC2-DMPE and 2 μM DiSBAC6(3). The solution was made by adding 10% Pluronic F127 stock equal to combined volumes of CC2-DMPE and DiSBAC6(3). The order of preparation was first mix Pluronic and CC2-DMPE, then add DiSBAC6(3), then while vortexing add Bath 1/p-Cyclodextrin.
# Compound Loading Buffer (2× concentration): Na/TMA C1 Bath1 Buffer containing HS (omitted in experiments run in the absence of human serum (HS)) 50%, VABSC-1 1 mM, BSA 0.2 mg/ml (in Bath-1), KCl 9 mM, DMSO 0.625%.
# 1) To reach the final concentration in each well, 375 nL of each compound was pre-spotted (in neat DMSO) into polypropylene compound plates at 240× desired final concentration from an intermediate stock concentration of 0.075 mM, in an 11 point dose response, 3-fold dilution, resulting in a top dose of 300 nM final concentration in the cell plate. Vehicle control (neat DMSO), and positive control (an established NaV1.8 inhibitor, 25 μM final in assay in DMSO) were added manually to the outermost columns of each plate respectively. The compound plate was backfilled with 45 μL per well of Compound Loading Buffer resulting in a 240 fold dilution of compound following a 1:1 transfer of compound into the cell plate (see Step 6). Final DMSO concentration for all wells in the assay was 0.625% (0.75% DMSO was supplemented to the Compound Loading Buffer for a final DMSO concentration of 0.625%). […]
# [1] = no human serum, read-out: IC50 in the E-VIPR Assay
# [2] = in the presence of human serum (compound numbers followed by *), read-out: IC50 in the E-VIPR Assay, performed in the presence of human serum
# human NaV 1.8, sequence (Q9Y5Y9 126-399 limits assumed): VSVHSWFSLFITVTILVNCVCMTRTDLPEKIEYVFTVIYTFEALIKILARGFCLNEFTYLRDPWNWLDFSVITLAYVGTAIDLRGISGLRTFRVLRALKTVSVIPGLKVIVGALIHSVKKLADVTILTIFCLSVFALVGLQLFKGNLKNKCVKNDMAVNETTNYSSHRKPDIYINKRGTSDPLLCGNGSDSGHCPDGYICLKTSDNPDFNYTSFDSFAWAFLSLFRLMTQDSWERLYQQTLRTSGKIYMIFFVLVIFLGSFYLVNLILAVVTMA
# human NaV 1.8, sequence (Q9Y5Y9 660-890 limits assumed): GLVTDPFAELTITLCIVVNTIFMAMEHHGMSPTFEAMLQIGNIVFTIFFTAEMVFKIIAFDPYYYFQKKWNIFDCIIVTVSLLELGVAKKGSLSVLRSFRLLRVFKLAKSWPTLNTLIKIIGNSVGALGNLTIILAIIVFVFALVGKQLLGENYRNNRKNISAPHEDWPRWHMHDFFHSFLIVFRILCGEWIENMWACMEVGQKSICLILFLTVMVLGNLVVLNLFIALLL
# human NaV 1.8, sequence (Q9Y5Y9 1148-1722 limits assumed): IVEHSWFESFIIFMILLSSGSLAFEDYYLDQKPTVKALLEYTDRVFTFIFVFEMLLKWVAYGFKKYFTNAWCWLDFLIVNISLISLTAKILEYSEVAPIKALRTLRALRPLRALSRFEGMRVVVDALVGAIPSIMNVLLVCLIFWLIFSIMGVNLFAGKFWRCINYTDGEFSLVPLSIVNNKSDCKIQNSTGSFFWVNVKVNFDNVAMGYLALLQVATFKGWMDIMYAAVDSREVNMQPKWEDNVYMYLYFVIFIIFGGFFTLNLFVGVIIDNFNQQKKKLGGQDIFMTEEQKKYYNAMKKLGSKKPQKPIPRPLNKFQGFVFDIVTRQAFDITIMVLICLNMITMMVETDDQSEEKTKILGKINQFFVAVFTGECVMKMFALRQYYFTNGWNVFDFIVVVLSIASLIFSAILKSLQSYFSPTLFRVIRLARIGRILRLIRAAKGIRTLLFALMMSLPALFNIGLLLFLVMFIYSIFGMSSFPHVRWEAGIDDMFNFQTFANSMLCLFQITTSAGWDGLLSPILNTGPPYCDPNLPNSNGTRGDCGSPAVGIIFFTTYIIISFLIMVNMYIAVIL
Structure (SMILES),IC50 [1] [µM],IC50 [2] [µM]
"COc1c([C@@H]2[C@H](C)[C@H](C)O[C@H]2C(=O)Nc2ccnc(C(O)CO)c2)ccc(F)c1F (relative stereo) [Compound 718, rel-(2R,3S,4S,5S)-3-(3,4-difluoro-2-methoxyphenyl)-N-(2-(1,2-dihydroxyethyl)pyridin-4-yl)-4,5-dimethyltetrahydrofuran-2-carboxamide]",0.1 to 1,–
"COc1c([C@H]2[C@@H](C)[C@@H](C)O[C@@H]2C(=O)Nc2ccnc(C(O)CO)c2)ccc(F)c1F (relative stereo) [Compound 719, rel-(2S,3R,4R,5R)-3-(3,4-difluoro-2-methoxyphenyl)-N-(2-(1,2-dihydroxyethyl)pyridin-4-yl)-4,5-dimethyltetrahydrofuran-2-carboxamide]",–,≥ 1
"COc1c([C@H]2[C@H](C(=O)Nc3ccnc(C(O)CO)c3)OC(C)(C)[C@H]2C)ccc(F)c1F (relative stereo) [Compound 721, rel-(2R,3S,4S)-3-(3,4-difluoro-2-methoxyphenyl)-N-(2-(1,2-dihydroxyethyl)pyridin-4-yl)-4,5,5-trimethyltetrahydrofuran-2-carboxamide]",–,0.1 to 1
"CCOc1c([C@@H]2[C@@H](C(=O)Nc3ccnc(S(C)(=N)=O)c3)O[C@](C)(C(F)(F)F)[C@@H]2C)ccc(F)c1F (single isomer, unassigned) [Compound 10]",0.1 to 1,–
"CCOc1c([C@@H]2[C@@H](C(=O)Nc3ccnc(S(C)(=N)=O)c3)O[C@](C)(C(F)(F)F)[C@@H]2C)ccc(F)c1F (single isomer, unassigned) [Compound 11]",≥ 1,–
"CNCc1cc(NC(=O)[C@@H]2O[C@@](C)(C(F)(F)F)[C@@H](C)[C@H]2c2ccc(F)c(F)c2OC)c(F)cn1 (single isomer, unassigned) [Compound 13, 3-(3,4-difluoro-2-methoxy-phenyl)-N-[5-fluoro-2-(methylaminomethyl)-4-pyridyl]-4,5-dimethyl-5-(trifluoromethyl)tetrahydrofuran-2-carboxamide]",–,0.01 to 0.1
"COc1c([C@H]2[C@H](C(=O)Nc3cc(C(O)CF)ncc3F)O[C@@](C)(C(F)(F)F)[C@H]2C)ccc(F)c1F (single isomer, unassigned) [Compound 24]",< 0.01,–
"COc1c(C2C(C(=O)Nc3ccn(C)c(=O)c3)OC(C)(C(F)(F)F)C2C)ccc(F)c1F (single isomer, unassigned) [Compound 27, 3-(3,4-difluoro-2-methoxy-phenyl)-4,5-dimethyl-N-(1-methyl-2-oxo-4-pyridyl)-5-(trifluoromethyl)tetrahydrofuran-2-carboxamide]",–,≥ 1
"COc1c(C2C(C(=O)Nc3ccn(C)c(=O)c3)OC(C)(C(F)(F)F)C2C)ccc(F)c1F (single isomer, unassigned) [Compound 28, 3-(3,4-difluoro-2-methoxy-phenyl)-4,5-dimethyl-N-(1-methyl-2-oxo-4-pyridyl)-5-(trifluoromethyl)tetrahydrofuran-2-carboxamide]",< 0.01,–
"COc1c(C2C(C(=O)Nc3cccnc3)OC(C)(C(F)(F)F)C2C)ccc(F)c1F (single isomer, unassigned) [Compound 29, 3-(3,4-difluoro-2-methoxy-phenyl)-4,5-dimethyl-N-(3-pyridyl)-5-(trifluoromethyl)tetrahydrofuran-2-carboxamide]",≥ 1,–
"COc1c(C2C(C(=O)Nc3cccnc3)OC(C)(C(F)(F)F)C2C)ccc(F)c1F (single isomer, unassigned) [Compound 30, 3-(3,4-difluoro-2-methoxy-phenyl)-4,5-dimethyl-N-(3-pyridyl)-5-(trifluoromethyl)tetrahydrofuran-2-carboxamide]",< 0.01,–
"COc1c(C2C(C(=O)Nc3ccc(P(C)(C)=O)cc3)OC(C)(C(F)(F)F)C2C)ccc(F)c1F (single isomer, unassigned) [Compound 39, 3-(3,4-difluoro-2-methoxy-phenyl)-N-(4-dimethylphosphorylphenyl)-4,5-dimethyl-5-(trifluoromethyl)tetrahydrofuran-2-carboxamide]",0.1 to 1,–

# Continued, values first:
IC50 [1] [µM],IC50 [2] [µM],Structure (SMILES)
–,≥ 1,"COc1c([C@@H]2[C@@H](C(=O)Nc3ccnc([S+](C)[O-])c3)O[C@](C)(C(F)(F)F)[C@@H]2C)ccc(F)c1F (single isomer, unassigned) [Compound 6]"
< 0.01,–,"COc1c([C@H]2[C@H](C(=O)Nc3ccnc([S+](C)[O-])c3)O[C@@](C)(C(F)(F)F)[C@H]2C)ccc(F)c1F (single isomer, unassigned) [Compound 8]"
–,< 0.01,"COc1c([C@H]2[C@H](C(=O)Nc3ccnc([S+](C)[O-])c3)O[C@@](C)(C(F)(F)F)[C@H]2C)ccc(F)c1F (single isomer, unassigned) [Compound 9]"
< 0.01,–,"COc1c([C@H]2[C@H](C(=O)Nc3ccnc(CO)c3)O[C@@](C)(C(F)(F)F)[C@H]2C)ccc(F)c1F (single isomer, unassigned) [Compound 14]"
0.01 to 0.1,–,"COc1c([C@H]2[C@H](C(=O)Nc3cnc4c(c3)CCC4O)O[C@@](C)(C(F)(F)F)[C@H]2C)ccc(F)c1F (single isomer, unassigned) [Compound 17]"
≥ 1,–,"COCCOc1cc(NC(=O)C2OC(C)(C(F)(F)F)C(C)C2c2ccc(F)c(F)c2OC)cnn1 (single isomer, unassigned) [Compound 33, 3-(3,4-difluoro-2-methoxy-phenyl)-N-[6-(2-methoxyethoxy)pyridazin-4-yl]-4,5-dimethyl-5-(trifluoromethyl)tetrahydrofuran-2-carboxamide]"
0.01 to 0.1,–,"COCCOc1cc(NC(=O)C2OC(C)(C(F)(F)F)C(C)C2c2ccc(F)c(F)c2OC)cnn1 (single isomer, unassigned) [Compound 34, 3-(3,4-difluoro-2-methoxy-phenyl)-N-[6-(2-methoxyethoxy)pyridazin-4-yl]-4,5-dimethyl-5-(trifluoromethyl)tetrahydrofuran-2-carboxamide]"
≥ 1,–,"COc1c(C2C(C(=O)Nc3ccncn3)OC(C)(C(F)(F)F)C2C)ccc(F)c1F (single isomer, unassigned) [Compound 35, 3-(3,4-difluoro-2-methoxy-phenyl)-4,5-dimethyl-N-pyrimidin-4-yl-5-(trifluoromethyl)tetrahydrofuran-2-carboxamide]"
< 0.01,–,"COc1c(C2C(C(=O)Nc3ccncn3)OC(C)(C(F)(F)F)C2C)ccc(F)c1F (single isomer, unassigned) [Compound 36, 3-(3,4-difluoro-2-methoxy-phenyl)-4,5-dimethyl-N-pyrimidin-4-yl-5-(trifluoromethyl)tetrahydrofuran-2-carboxamide]"
≥ 1,–,"COc1c(C2C(C(=O)Nc3cncnc3)OC(C)(C(F)(F)F)C2C)ccc(F)c1F (single isomer, unassigned) [Compound 37, 3-(3,4-difluoro-2-methoxy-phenyl)-4,5-dimethyl-N-pyrimidin-5-yl-5-(trifluoromethyl)tetrahydrofuran-2-carboxamide]"
< 0.01,–,"COc1c(C2C(C(=O)Nc3cncnc3)OC(C)(C(F)(F)F)C2C)ccc(F)c1F (single isomer, unassigned) [Compound 38, 3-(3,4-difluoro-2-methoxy-phenyl)-4,5-dimethyl-N-pyrimidin-5-yl-5-(trifluoromethyl)tetrahydrofuran-2-carboxamide]"
